Laboratory results from patent US8350064B2, “Fluorescent xanthenes and white light fluorophores” (Board of Supervisors of Louisiana State University And …, priority 2006, dated 2013).
Where “and” joins values, the source holds several entries; their conditions need not be identical. Equal values may be shown once. Entries after “also recorded” stand apart in the source; their conditions may differ.

Columns and labels:
[1] = pKa of SNAFR-2 from absorption and emission spectra as a function of pH; format: physicochemical; settings: 50 mM phosphate buffer with 0.25% DMSO
Procedure: SNAFR-2 was dissolved in 50 mM phosphate buffer with 0.25% DMSO. As the pH increased, the absorption band centered at 550 nm increased. We attributed this band to the anionic form (A). Concurrently, the absorption band at ca. 460 nm decreased. We attributed the 460 nm band to the neutral form (N). Four isosbestic points were observed, at 484, 394, 327, and 304 nm. The 484 nm isosbestic point is near the 488 nm Ar ion laser line. Thus ratiometric measurements using SNAFR-2 as a probe may be conducted with an Ar ion laser and common, commercially available filter sets.
FIGS. 1A through 1H depict the spectral properties of 30 μM SNAFR-2 in 50 mM phosphate buffer with 0.25% DMSO at various pH values. The arrows indicate the spectral changes as the pH increased in order: 7, 8, 8.5, 9 and 10. A=anionic form. N=neutral form. FIG. 1A depicts Absorption spectra. The * indicates the positions of isosbestic points. FIGS. 1B-D depict excitation spectra, with emission monitored at 400 nm, 540 nm, and 620 nm respectively. FIGS. 1E-H depict emission spectra with excitations at 325 nm, 488 nm, 514 nm, and 543 nm respectively, wavelengths that correspond to common laser lines. All fluorescence spectra were normalized versus the maximum for each data set.
(§1) Most prior organic fluorophores have been limited by a narrow excitation range, which has hindered their use in multiplexing systems with other fluorophores. By contrast, the absorption and excitation spectra of SNAFR-2 allow it to be excited from 260 nm to 600, a range that includes various common laser lines, for example, HeCd at 325 nm, Ar ion at 488 and 514 nm, and HeNe at 543 nm (FIGS. 1A-D). SNAFR-2 is compatible with commercially available filter sets, such as those used in various spectroscopic instruments and fluorescence microscopes. […] The pK*a was calculated as 4.54 or 4.73 at room temperature, determined as pKa-em and pKa-abs, respectively.

[2] = Excited-state pK*a of SNAFR-2 estimated using the Forster equation; format: physicochemical
Description: as §1

[3] = Spectral properties of SNAFR-2 in DMSO and MeOH; format: physicochemical; settings: for Φ (quantum yield relative to rhodamine 6G in EtOH, Φ = 1): excitation 514 nm
Description: The violet-blue emission increased in these organic solvents as compared to buffer. The green emission was attributed to the neutral form. As expected, the emission corresponding to the anionic form decreased in both solvents.

[4] = Photobleaching decay of SNAFR-2 in MeOH and fluorescein in 0.1 M NaOH; format: physicochemical; settings: SNAFR-2 in MeOH; excitation 488 nm; at least 1800 s; compared with fluorescein in 0.1 M NaOH
Description: We investigated the photostability of SNAFR-2 in MeOH. […] In MeOH, SNAFR-2 can be excited efficiently at 488 nm, which corresponds to an Ar ion laser line. This wavelength also matches well with the absorbance maximum (λabs=493 nm) of fluorescein in aqueous base. We conducted photostability studies in SNAFR-2 and fluorescein solutions, with the concentration of each selected to have an absorbance of 0.03 at 488 nm. The excitation band-pass was opened to 14 nm, the maximum allowed by the instrument we used. The fluorescence signal was collected using both the S- and T-channels of the instrument. S-channel data were collected through a dual monochromator set to the emission maximum of the particular fluorophore. T-channel data were collected through a 550 nm, long-pass filter. High voltage for the photomultiplier tube (PMT) was set to 950 and 500 V for the S and T channels, respectively. […] Fluorescence intensity was monitored at the emission maximum through a dual monochromator following excitation at 543 nm. […] FIGS. 9A and 9B depict the photobleaching decay of SNAFR-2 in MeOH, and of fluorescein in 0.1 M NaOH, monitored at the emission maximum of each compound (FIG. 9A), or through a 550 nm long-pass filter (FIG. 9B). The fluorescence intensity was normalized for each compound as compared to the intensity at time t=0.

HEp2 cells [5] = assay: Cellular imaging of live cells (uptake and localization); format: cell-based; settings: fluorescence imaging
Description: There was a strong signal from the endoplasmic reticulum, and a smaller signal from mitochondria. […] No obvious staining of the plasma membrane was seen. However, since the plasma membrane has a large surface area, a relatively low surface signal might not have been detected. Three different filter sets, DAPI, FITC, and Texas Red, were used to select for wavelengths corresponding to the blue, green, and red emissions of SNAFR-2, respectively. […] However, autofluorescence was minimal with the longer wavelength filter sets, FITC and Texas Red.

HEp2 cells [6] = assay: Cytotoxicity, CellTiter Blue Cell Viability assay; format: cell-based; settings: 24 hours, up to 100 μM (FIG. 10), dilutions 10 μM to 1.25 μM
Procedure: Compound toxicity was tested by plating 7500 HEp2 cells per well on a Costar 96-well plate. Cells were allowed to grow for 48 hours and were then fed medium containing twofold dilutions of SNAFR-6 ranging from 10 μM to 1.25 μM. Also, 0.1% Saponin (Sigma) was used as a […] control. Cells were then incubated for 24 hours. Viability was measured using the CellTiter Blue Cell Viability assay (Promega) as per manufacturer's instructions. The fluorescence signal was detected using an excitation wavelength of 520 nm and emission wavelength of 584 nm. Viability was normalized against a scale in which untreated cells were rated 100%, and cells treated with 0.1% saponin were rated 0%. At the concentrations tested, the cytotoxicity of SNAFR-6 was low.

[7] = pKa of SNAFR-6 by absorption and fluorescence titration; aggregation in buffered media; format: physicochemical
Description: Both the neutral and anionic forms could be excited simultaneously at wavelengths from ˜420 nm to ˜530 nm, a range that includes both the 488 and 514 nm argon ion laser spectral lines. The neutral emission could be selectively measured by using, for example, an FITC filter set. Also, the anionic form can be selectively excited using a longer excitation wavelength, ˜540 nm to ˜650 nm. Anionic emission can be selectively measured, using, for example, common Texas Red filter sets. SNAFR-6 is thus a versatile fluorophore for ratiometric measurements.

[8] = Fluorescence properties of SNAFR-6 (Stokes shift, quantum yield); format: physicochemical
Description: The neutral form of SNAFR-6 could be excited from ˜420 nm to ˜530 nm. Its emission was centered at 571 nm. The anionic form could be efficiently excited over a broad range from ˜420 nm to ˜650 nm, with an excitation maximum at 536 nm. The anionic emission ranged from ˜575 nm to ˜850 nm, centered at 733 nm. SNAFR-6 thus has a very large Stokes shift, 197 nm.
FIG. 7 depicts an overlay of the normalized absorption spectrum of SNAFR-6 in 0.1 M NaOH solution, and the NIR emission from its anionic form in phosphate buffer (50 mM, pH 9.3):DMSO 99:1 v/v. The anionic emission at 733 nm was readily excited throughout a ˜200 nm window, a range that includes the common argon ion laser wavelengths of 488 nm and 514 nm. The absorption maximum is located at 536 nm.
The quantum yield of the anionic (NIR) emission of SNAFR-6 in DMSO was 0.09, measured by reference to rhodamine 6G in EtOH. This is a relatively high value for an NIR dye emitting at a wavelength longer than ˜730 nm.

[9] = method 0-0 excitation, room temperature

O=c1ccc2c(-c3ccccc3)c3ccc4cc(O)ccc4c3oc-2c1 [SNAFR-2]
pKa ([1]; Abs, λisobestic 304, λ1/λ2 265/304, 50 mM phosphate buffer, read-out: pKa): 8.48 | pKa ([1]; Abs, λisobestic 304, λ1/λ2 296/304, 50 mM phosphate buffer, read-out: pKa): 8.54 | pKa ([1]; Abs, λisobestic 304, λ1/λ2 312/304, 50 mM phosphate buffer, read-out: pKa): 8.48 | pKa ([1]; Abs, λisobestic 327, λ1/λ2 312/327, 50 mM phosphate buffer, read-out: pKa): 8.54 | pKa ([1]; Abs, λisobestic 327, λ1/λ2 344/327, 50 mM phosphate buffer, read-out: pKa): 8.51 | pKa ([1]; Abs, λisobestic 327, λ1/λ2 380/327, 50 mM phosphate buffer, read-out: pKa): 8.51 | pKa ([1]; Abs, λisobestic 394, λ1/λ2 344/394, 50 mM phosphate buffer, read-out: pKa): 8.58 | pKa ([1]; Abs, λisobestic 394, λ1/λ2 380/394, 50 mM phosphate buffer, read-out: pKa): 8.68 | pKa ([1]; Abs, λisobestic 484, λ1/λ2 469/484, 50 mM phosphate buffer, read-out: pKa): 8.47 | pKa ([1]; Abs, λisobestic 484, λ1/λ2 511/484, 50 mM phosphate buffer, read-out: pKa): 8.54 | pKa ([1]; Abs, λisobestic 484, λ1/λ2 543/484, 50 mM phosphate buffer, read-out: pKa): 8.52 | pKa ([1]; Em, λex 325, λ1/λ2 541/597, 50 mM phosphate buffer, read-out: pKa): 8.32 | pKa ([1]; Em, λex 325, λ1/λ2 575/597, 50 mM phosphate buffer, read-out: pKa): 8.32 | pKa ([1]; Em, λex 325, λ1/λ2 627/597, 50 mM phosphate buffer, read-out: pKa): 8.38 | pKa ([1]; Em, λex 488, λ1/λ2 542/600, 50 mM phosphate buffer, read-out: pKa): 8.33 | pKa ([1]; Em, λex 488, λ1/λ2 575/600, 50 mM phosphate buffer, read-out: pKa): 8.36 | pKa ([1]; Em, λex 488, λ1/λ2 630/600, 50 mM phosphate buffer, read-out: pKa): 8.35 | pKa ([1]; Em, λex 514, λ1/λ2 539/595, 50 mM phosphate buffer, read-out: pKa): 8.31 | pKa ([1]; Em, λex 514, λ1/λ2 575/595, 50 mM phosphate buffer, read-out: pKa): 8.32 | pKa ([1]; Em, λex 514, λ1/λ2 623/595, 50 mM phosphate buffer, read-out: pKa): 8.34 | pKa ([1]; absorption spectra, phosphate buffer with 0.25% DMSO, read-out: average pKa-abs): 8.53 ± 0.06 | pKa ([1]; different excitation wavelengths, phosphate buffer with 0.25% DMSO, read-out: pKa values inferred from emission spectra): 8.31 to 8.38 | pKa ([1]; different isosbestic points, phosphate buffer with 0.25% DMSO, read-out: pKa values calculated from absorption spectra): 8.47 to 8.68 | pKa ([1]; emission spectra, phosphate buffer with 0.25% DMSO, read-out: average pKa-em): 8.34 ± 0.02 | pK*a value ([2]; across different methods to calculate the excitation frequency): 3.3 to 6.3 | pKa-abs* ([2]; method 0-0 absorption): 5.30 | pKa-em* ([2]; method 0-0 absorption): 5.11 | pKa-abs* [2, 9]: 4.73 | pKa-em* [2, 9]: 4.54 | pKa-abs* ([2]; method Absorption): 6.34 | pKa-em* ([2]; method Absorption): 6.15 | pKa-abs* ([2]; method Emission): 3.54 | pKa-em* ([2]; method Emission): 3.34 | pKa-abs* ([2]; method Excitation): 6.25 | pKa-em* ([2]; method Excitation): 6.05 | λem (peak locations in the emission spectra) ([3]; DMSO): 560 nm | Φ (quantum yield relative to rhodamine 6G in EtOH, Φ = 1) ([3]; DMSO): 0.33 | λem (peak locations in the emission spectra) ([3]; MeOH): 550 nm | Φ (quantum yield relative to rhodamine 6G in EtOH, Φ = 1) ([3]; MeOH): 0.41 | photostability (photobleaching decay) [4]: far more photostable than fluorescein; also recorded: excellent photostability; also recorded: considerably higher photostability | entry into cells (HEp2 cells [5]): readily entered HEp2 cells

O=c1ccc2c(-c3ccccc3)c3cc4ccc(O)cc4cc3oc-2c1 [SNAFR-6]
cytotoxicity (cell viability) (HEp2 cells [6]): low and low cytotoxicity | entry into cells (HEp2 cells [5]): readily enters cells | pKa ([7]; absorption titration): 8.18 ± 0.03 | aggregation ([7]; buffered media): Significant aggregation in buffered media was not seen | pKa ([7]; fluorescence titration): 8.1 ± 0.03 | quantum yield of the anionic (NIR) emission ([8]; DMSO, by reference to rhodamine 6G in EtOH): 0.09 | Stokes shift ([8]; anionic form, excitation maximum 536 nm, emission 733 nm, aqueous solution): 197 nm and ~200 nm
